In patent US7067714B1 (priority 1999, dated 2006):

Experiments:
N-type Ca channel = assay type: cell-based, mouse

Row | Compound | increase in atrial muscle contractile force by nerve stimulus (isolated mouse atrium) | influx of Ca2+ inhibited by ω-conotoxin GVIA (N-type Ca channel)
1 | NC1=N[C@H](O)[C@H]2[C@H]3O[C@]4(O)O[C@@H]([C@@H](O)[C@@]2(N1)[C@@H]4O)[C@]3(O)CO [tetrodotoxin] | completely inhibited | –
2 | ω-conotoxin GVIA | – | not observed
